Experiments:
[1] = tested on: ginsenoside glycosidases from A. niger; assay: Hydrolysis of ginsenosides with crude ginsenoside glycosidases from A. niger, products measured by TLC; type: biochemical, Aspergillus niger
Procedure: Aspergillus niger FFCCDL-48 g was cultured in a medium containing 1% ginseng extracts and 3% wheat bran extracts at 30° C. for 54 hours. Cells were removed by centrifugation, after which (NH4)2SO4 powder was added to 2000 ml of the cell-free supernatant with stirring to 65% saturation. The solution was stored overnight at 4° C. and precipitated proteins were collected by centrifugation, resuspended in 80 ml of distilled water and dialyzed against 0.01M acetate buffer pH 5. Insolubles were removed by centrifugation, and the solution was adjusted to 200 ml with 0.01 M acetate buffer pH 5. The crude enzyme solution may be used to hydrolyze ginsenosides or to purify the enzymes.
100 mg each of ginsenosides Rb1, Rb2, Rc and Rd and 10 mg of ginsenoside Rg3 were dissolved in separate tubes containing 10 ml of 0.01M acetate buffer pH 5. 10 ml of the crude enzyme solution obtained in 1.1 was added to each tube and allowed to react at 30° C. for 18 hours. Then 10 ml of n-butanol was added to stop the reactions. The products were measured by thin layer chromatography (TLC) (Silica gel 60-F254, Merck; chloroform:methanol:water 70:30:5).
Experiments were carried out to explore the effects of temperature, pH, metal ions and reaction time on the enzyme reaction, in order to further characterize the enzymes.
100 mg of ginsenoside Rb1 was used in a reaction under the conditions as described in 1.2 and the effect of temperature was shown in Table 2.

[2] = tested on: Cellulose β-glucosidase of Clostridium and Bacillus (EC 3.2.1.21); assay: Comparison: hydrolysis of ginsenosides with cellulose β-glucosidase of Clostridium and Bacillus; type: biochemical, Clostridium thermocopiriae and Bacillus sp. AX; details: substrate 0.5%, pH 5.0, 30° C., 18 hours
Text: To observe the differences between the ginsenoside glycosidases of the invention and known exo-cellulases, the ginsenoside glycosidases of the invention were compared with cellulose β-glucosidase (E.C. 3.2.1.21) in two reactions with 0.5% ginsenosides Rb1 or Rd as substrate.
Cellulose β-glucosidases (EC 3.2.1.21) from Clostridium thermocopiriae and Bacillus sp. AX cannot hydrolyze any glycosides of ginsenosides. The cellulose β-glucosidase from almond slightly hydrolyzes the C-20 glycoside of Rb1, Rb2 and Rc to give ginsenoside Rd, but it cannot hydrolyze the glucoside at C-3. Ginsenoside glycosidase II is similar to cellulose β-glucosidase from almond, but it only slightly hydrolyzes Rd. The properties of ginsenoside glycosidase III are totally different from those of cellulose β-glucosidases.

[3] = Rb1 0.5%, 20° C., pH 5.0, 18 hours
[4] = Rb1 0.5%, 30° C., pH 5.0, 18 hours
[5] = Rb1 0.5%, 40° C., pH 5.0, 18 hours
[6] = Rb1 0.5%, 50° C., pH 5.0, 18 hours
[7] = Rb1 0.5%, 60° C., pH 5.0, 18 hours
[8] = Rb1 0.5%, 70° C., pH 5.0, 18 hours
[9] = Rb1 0.5%, Ca^++ 50 mM, pH 5.0, 30°C.
[10] = Rb1 0.5%, Ca^++ 100 mM, pH 5.0, 30°C.
[11] = Rb1 0.5%, Cu^++ 100 mM, pH 5.0, 30°C.
[12] = Rb1 0.5%, Mg^++ 50 mM, pH 5.0, 30°C.
[13] = Rb1 0.5%, Mg^++ 100 mM, pH 5.0, 30°C.
[14] = Rb1 0.5%, No ion, pH 5.0, 30°C.
[15] = Rb1 0.5%, Pb^++ 100 mM, pH 5.0, 30°C.
[16] = Rb1 0.5%, pH 3.0, 30° C., 18 hours
[17] = Rb1 0.5%, pH 4.0, 30° C., 18 hours
[18] = Rb1 0.5%, pH 5.0, 30° C., 18 hours
[19] = Rb1 0.5%, pH 6.0, 30° C., 18 hours
[20] = Rb1 0.5%, pH 7.0, 30° C., 18 hours
[21] = Rb1 0.5%, pH 8.0, 30° C., 18 hours
[22] = Rb1 0.5%, reaction time 1 hours, pH 5, 30° C.
[23] = Rb1 0.5%, reaction time 4 hours, pH 5, 30° C.
[24] = Rb1 0.5%, reaction time 8 hours, pH 5, 30° C.
[25] = Rb1 0.5%, reaction time 12 hours, pH 5, 30° C.
[26] = Rb1 0.5%, reaction time 18 hours, pH 5, 30° C.
[27] = Rb1 0.5%, reaction time 24 hours, pH 5, 30° C.
[28] = Rb1 0.5%, reaction time 30 hours, pH 5, 30° C.
[29] = Rb1 0.5%, reaction time 36 hours, pH 5, 30° C.

## CC(C)=CCC[C@](C)(O[C@@H]1O[C@H](CO[C@@H]2O[C@H](CO)[C@@H](O)[C@H](O)[C@H]2O)[C@@H](O)[C@H](O)[C@H]1O)[C@H]1CC[C@]2(C)[C@@H]1[C@H](O)C[C@@H]1[C@@]3(C)CC[C@H](O[C@@H]4O[C@H](CO)[C@@H](O)[C@H](O)[C@H]4O[C@@H]4O[C@H](CO)[C@@H](O)[C@H](O)[C@H]4O)C(C)(C)[C@@H]3CC[C@]12C [Rb1, ginsenoside Rb1]
[1]; [3]
  Percentage of C—K in the reaction product: 10%
  Percentage of F2 in the reaction product: 15%
  Percentage of Rb1 in the reaction product: 25%
  Percentage of Rd in the reaction product: 50%
[1]; [4]
  Percentage of C—K in the reaction product: 16%
  Percentage of F2 in the reaction product: 63%
  Percentage of Rb1 in the reaction product: 1%
  Percentage of Rd in the reaction product: 10%
  Percentage of Rh2 in the reaction product: 5%
  Percentage of aglycone in the reaction product: 5%
[1]; [5]
  Percentage of C—K in the reaction product: 34%
  Percentage of F2 in the reaction product: 50%
  Percentage of Rd in the reaction product: 5%
  Percentage of Rh2 in the reaction product: 6%
  Percentage of aglycone in the reaction product: 5%
[1]; [6]
  Percentage of C—K in the reaction product: 42%
  Percentage of F2 in the reaction product: 40%
  Percentage of Rd in the reaction product: 5%
  Percentage of Rh2 in the reaction product: 4%
  Percentage of aglycone in the reaction product: 4%
[1]; [7]
  Percentage of C—K in the reaction product: 6%
  Percentage of F2 in the reaction product: 10%
  Percentage of Rb1 in the reaction product: 30%
  Percentage of Rd in the reaction product: 50%
  Percentage of Rh2 in the reaction product: 2%
  Percentage of aglycone in the reaction product: 2%
[1]; [8]
  Percentage of Rb1 in the reaction product: 82%
  Percentage of Rd in the reaction product: 18%
[1]; [9]
  Percentage of C—K in the reaction product: 20%
  Percentage of F2 in the reaction product: 65%
  Percentage of Rd in the reaction product: 4%
  Percentage of Rh2 in the reaction product: 7%
  Percentage of aglycone in the reaction product: 4%
[1]; [10]
  Percentage of C—K in the reaction product: 21%
  Percentage of F2 in the reaction product: 67%
  Percentage of Rh2 in the reaction product: 7%
  Percentage of aglycone in the reaction product: 5%
[1]; [11]
  Percentage of C—K in the reaction product: 10%
  Percentage of F2 in the reaction product: 30%
  Percentage of Rb1 in the reaction product: 30%
  Percentage of Rd in the reaction product: 30%
[1]; [12]
  Percentage of C—K in the reaction product: 17%
  Percentage of F2 in the reaction product: 65%
  Percentage of Rd in the reaction product: 6%
  Percentage of Rh2 in the reaction product: 7%
  Percentage of aglycone in the reaction product: 5%
[1]; [13]
  Percentage of C—K in the reaction product: 21%
  Percentage of F2 in the reaction product: 67%
  Percentage of Rh2 in the reaction product: 8%
  Percentage of aglycone in the reaction product: 4%
[1]; [14]
  Percentage of C—K in the reaction product: 16%
  Percentage of F2 in the reaction product: 63%
  Percentage of Rd in the reaction product: 10%
  Percentage of Rh2 in the reaction product: 5%
  Percentage of aglycone in the reaction product: 2%
[1]; [15]
  Percentage of C—K in the reaction product: 1%
  Percentage of F2 in the reaction product: 9%
  Percentage of Rb1 in the reaction product: 70%
  Percentage of Rd in the reaction product: 20%
[1]; [16]
  Percentage of C—K in the reaction product: 40%
  Percentage of F2 in the reaction product: 30%
  Percentage of Rb1 in the reaction product: 2%
  Percentage of Rd in the reaction product: 20%
  Percentage of Rh2 in the reaction product: 8%
  Percentage of aglycone in the reaction product: 10%
[1]; [17]
  Percentage of C—K in the reaction product: 39%
  Percentage of F2 in the reaction product: 43%
  Percentage of Rb1 in the reaction product: 1%
  Percentage of Rd in the reaction product: 10%
  Percentage of Rh2 in the reaction product: 7%
  Percentage of aglycone in the reaction product: 5%
[1]; [18]
  Percentage of C—K in the reaction product: 16%
  Percentage of F2 in the reaction product: 63%
  Percentage of Rd in the reaction product: 10%
  Percentage of Rh2 in the reaction product: 5%
  Percentage of aglycone in the reaction product: 5%
[1]; [19]
  Percentage of C—K in the reaction product: 21%
  Percentage of F2 in the reaction product: 56%
  Percentage of Rd in the reaction product: 15%
  Percentage of Rh2 in the reaction product: 4%
  Percentage of aglycone in the reaction product: 4%
[1]; [20]
  Percentage of C—K in the reaction product: 6%
  Percentage of F2 in the reaction product: 41%
  Percentage of Rb1 in the reaction product: 10%
  Percentage of Rd in the reaction product: 41%
  Percentage of Rg3 in the reaction product: 2%
  Percentage of Rh2 in the reaction product: 2%
  Percentage of aglycone in the reaction product: 2%
[1]; [21]
  Percentage of C—K in the reaction product: 6%
  Percentage of F2 in the reaction product: 36%
  Percentage of Rb1 in the reaction product: 20%
  Percentage of Rd in the reaction product: 45%
  Percentage of Rg3 in the reaction product: 3%
[1]; [22]
  Percentage of Rb1 in the reaction product: 38%
  Percentage of Rd in the reaction product: 62%
[1]; [23]
  Percentage of F2 in the reaction product: 10%
  Percentage of Rb1 in the reaction product: 12%
  Percentage of Rd in the reaction product: 72%
[1]; [24]
  Percentage of C—K in the reaction product: 2%
  Percentage of F2 in the reaction product: 38%
  Percentage of Rb1 in the reaction product: 8%
  Percentage of Rd in the reaction product: 51%
[1]; [25]
  Percentage of C—K in the reaction product: 6%
  Percentage of F2 in the reaction product: 54%
  Percentage of Rb1 in the reaction product: 6%
  Percentage of Rd in the reaction product: 30%
  Percentage of Rh2 in the reaction product: 2%
  Percentage of aglycone in the reaction product: 2%
[1]; [26]
  Percentage of C—K in the reaction product: 16%
  Percentage of F2 in the reaction product: 63%
  Percentage of Rd in the reaction product: 10%
  Percentage of Rh2 in the reaction product: 5%
  Percentage of aglycone in the reaction product: 5%
[1]; [27]
  Percentage of C—K in the reaction product: 24%
  Percentage of F2 in the reaction product: 60%
  Percentage of Rd in the reaction product: 8%
  Percentage of Rh2 in the reaction product: 4%
  Percentage of aglycone in the reaction product: 4%
[1]; [28]
  Percentage of C—K in the reaction product: 44%
  Percentage of F2 in the reaction product: 40%
  Percentage of Rd in the reaction product: 5%
  Percentage of Rg3 in the reaction product: 2%
  Percentage of Rh2 in the reaction product: 6%
  Percentage of aglycone in the reaction product: 3%
[1]; [29]
  Percentage of C—K in the reaction product: 52%
  Percentage of F2 in the reaction product: 30%
  Percentage of Rd in the reaction product: 2%
  Percentage of Rg3 in the reaction product: 3%
  Percentage of Rh2 in the reaction product: 7%
  Percentage of aglycone in the reaction product: 6%
[1]; pH 5, 30° C., 18 hours
  Percentage of C—K in the reaction product: 16%
  Percentage of F2 in the reaction product: 63%
  Percentage of Rb1 in the reaction product: 1%
  Percentage of Rd in the reaction product: 10%
  Percentage of Rh2 in the reaction product: 5%
  Percentage of aglycone in the reaction product: 5%
[2]
  Percentage of Rb1 in the reaction product: 100%

Source: patent US7759101B2, “Ginsenoside glycosidases hydrolyzing ginsenoside sugar moieties and uses thereof” (priority 2000, dated 2010)
